Values quoted from earlier work as cited in patent US7700560B2 (University of Maryland, Baltimore County, priority 2003, dated 2010).

Experiments:
[1] = test system: DMS114 lung and DU145 prostate xenografts; settings: dicyclopentyl diester; cited from earlier work
[2] = test system: lung tumor cell lines NCI-H460, NCI-H226, A549, NCI-H23, DMS273, DMS114, NCI-H522; settings: dicyclopentyl diester; cited from earlier work

## NC(CCC(=O)NC(CSCc1ccc(Br)cc1)C(=O)NCC(=O)OC1CCCC1)C(=O)OC1CCCC1 (centres unmarked)
[1]
  inhibition of DMS144 and human prostate DU145 xenografts in nude mice: effectively inhibited
[2]
  inhibition of lung tumor cell lines in vitro: effectively inhibited
